{"source": "ChEMBL document CHEMBL1121436", "about": "“2,4-Diamino-5-benzylpyrimidines as antibacterial agents. 4. 6-Substituted trimethoprim derivatives from phenolic Mannich intermediates. Application to the synthesis of trimethoprim and 3,5-dialkylbenzyl analogues” (J Med Chem, 1980)", "key": {"Dihydrofolate reductase": {"target": "T1, Dihydrofolate reductase (Rattus norvegicus, UniProt Q920D2)", "T1 sequence (Q920D2 whole entry)": "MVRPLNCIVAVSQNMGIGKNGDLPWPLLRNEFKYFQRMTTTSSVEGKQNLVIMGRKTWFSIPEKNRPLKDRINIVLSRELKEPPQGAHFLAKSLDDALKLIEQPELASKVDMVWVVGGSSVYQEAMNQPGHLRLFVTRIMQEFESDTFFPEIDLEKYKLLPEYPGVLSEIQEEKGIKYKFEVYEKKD", "test": "Inhibition against dihydrofolate reductase enzyme of rat liver", "settings": "read-out: I50"}, "Escherichia coli": {"test_system": "Escherichia coli", "test": "Tested for antibacterial activity against Escherichia coli CN314", "assay_type": "functional"}, "Streptococcus pyogenes": {"test_system": "Streptococcus pyogenes", "test": "Tested for antibacterial activity against Streptococcus pyogenes CN10", "assay_type": "functional"}, "Staphylococcus aureus [1]": {"test_system": "Staphylococcus aureus", "test": "Tested for antibacterial activity against Staphylococcus aureus CN491", "assay_type": "functional"}, "Shigella dysenteriae": {"test_system": "Shigella dysenteriae", "test": "Tested for antibacterial activity against Shigella dysentariae CN1513", "assay_type": "functional"}, "Salmonella": {"test_system": "Salmonella", "test": "Tested for antibacterial activity against Salmonella typhi CN512", "assay_type": "functional, salmonella typhosa"}, "Proteus vulgaris": {"test_system": "Proteus vulgaris", "test": "Tested for antibacterial activity against Proteus vulgaris CN329", "assay_type": "functional"}, "[2]": {"target": "T2, Bifunctional dihydrofolate reductase-thymidylate synthase (Plasmodium berghei str. ANKA, UniProt Q27713)", "T2 sequence (Q27713 whole entry)": "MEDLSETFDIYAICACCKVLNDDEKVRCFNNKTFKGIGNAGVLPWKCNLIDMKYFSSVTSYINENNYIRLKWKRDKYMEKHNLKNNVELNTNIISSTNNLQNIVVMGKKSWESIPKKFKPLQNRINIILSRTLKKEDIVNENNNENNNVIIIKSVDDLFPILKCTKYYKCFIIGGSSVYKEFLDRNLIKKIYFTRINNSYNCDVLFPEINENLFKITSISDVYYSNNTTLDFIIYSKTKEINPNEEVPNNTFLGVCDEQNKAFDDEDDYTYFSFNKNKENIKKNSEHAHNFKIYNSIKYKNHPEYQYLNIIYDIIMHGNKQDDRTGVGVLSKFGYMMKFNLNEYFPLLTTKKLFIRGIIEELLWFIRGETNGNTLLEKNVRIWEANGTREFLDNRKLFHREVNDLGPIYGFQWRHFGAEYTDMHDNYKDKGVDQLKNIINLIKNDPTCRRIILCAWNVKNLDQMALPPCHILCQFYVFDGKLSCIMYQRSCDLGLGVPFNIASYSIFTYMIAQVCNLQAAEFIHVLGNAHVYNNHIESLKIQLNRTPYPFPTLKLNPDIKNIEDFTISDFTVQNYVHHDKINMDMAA", "test": "Compound was tested for its inhibition against dihydrofolate reductase enzyme of Plasmodium berghei", "settings": "read-out: I50"}, "[3]": {"target": "T2, Bifunctional dihydrofolate reductase-thymidylate synthase", "test": "Tested for the inhibition of Plasmodium berghei dihydrofolate reductase enzyme", "settings": "read-out: I50"}, "Staphylococcus aureus [4]": {"test_system": "Staphylococcus aureus", "test": "Tested for antibacterial activity against Staphylococcus aureus CN491"}}, "data": [{"smiles": "CCCc1nc(N)nc(N)c1Cc1cc(OC)c(OC)c(OC)c1", "values": [{"measurement": "IC50", "setting": "Dihydrofolate reductase", "value": 1500, "unit": "µM"}]}, {"smiles": "COc1cc(Cc2c(N)nc(N)nc2OC)cc(OC)c1OC", "values": [{"measurement": "MIC", "setting": "Escherichia coli", "value": "> 500", "unit": "µg/mL"}, {"measurement": "MIC", "setting": "Streptococcus pyogenes", "value": 8, "unit": "µg/mL"}, {"measurement": "IC50", "setting": "Dihydrofolate reductase", "value": "> 100", "unit": "µM"}, {"measurement": "MIC", "setting": "Staphylococcus aureus [1]", "value": 125, "unit": "µg/mL"}, {"measurement": "MIC", "setting": "Shigella dysenteriae", "value": "> 500", "unit": "µg/mL"}, {"measurement": "MIC", "setting": "Salmonella", "value": "> 500", "unit": "µg/mL"}, {"measurement": "MIC", "setting": "Proteus vulgaris", "value": "> 500", "unit": "µg/mL"}]}, {"smiles": "CCCc1nc(N)nc(N)c1Cc1cc(OC)c(O)c(OC)c1", "values": [{"measurement": "IC50", "setting": "[2]", "value": 1.5, "unit": "µM"}]}, {"smiles": "COc1cc(Cc2c(C)nc(N)nc2N)cc(OC)c1OC", "values": [{"measurement": "IC50", "setting": "Dihydrofolate reductase", "value": "> 400", "unit": "µM"}, {"measurement": "IC50", "setting": "[2]", "value": 0.34, "unit": "µM"}]}, {"smiles": "COc1cc(Cc2c(N)nc(N)nc2-c2ccccc2)cc(OC)c1O", "values": [{"measurement": "IC50", "setting": "Dihydrofolate reductase", "value": "> 45", "unit": "µM"}]}, {"smiles": "COc1cc(Cc2c(N)nc(N)nc2SC)cc(OC)c1OC", "values": [{"measurement": "IC50", "setting": "[3]", "value": 20, "unit": "µM"}]}, {"smiles": "COc1c(C(C)(C)C)cc(Cc2c(N)nc(N)nc2SC)cc1C(C)(C)C", "values": [{"measurement": "MIC", "setting": "Staphylococcus aureus [4]", "value": "> 500", "unit": "µg/mL"}, {"measurement": "MIC", "setting": "Escherichia coli", "value": "> 500", "unit": "µg/mL"}, {"measurement": "MIC", "setting": "Streptococcus pyogenes", "value": "> 500", "unit": "µg/mL"}, {"measurement": "MIC", "setting": "Shigella dysenteriae", "value": "> 500", "unit": "µg/mL"}, {"measurement": "MIC", "setting": "Salmonella", "value": "> 500", "unit": "µg/mL"}, {"measurement": "MIC", "setting": "Proteus vulgaris", "value": "> 500", "unit": "µg/mL"}]}, {"smiles": "COc1cc(Cc2c(C)nc(N)nc2N)cc(OC)c1O", "values": [{"measurement": "IC50", "setting": "[2]", "value": 0.48, "unit": "µM"}]}, {"smiles": "COc1cc(Cc2c(N)nc(N)nc2-c2ccccc2)cc(OC)c1OC", "values": [{"measurement": "MIC", "setting": "Staphylococcus aureus [4]", "value": 62, "unit": "µg/mL"}, {"measurement": "MIC", "setting": "Escherichia coli", "value": 250, "unit": "µg/mL"}, {"measurement": "MIC", "setting": "Streptococcus pyogenes", "value": 16, "unit": "µg/mL"}, {"measurement": "IC50", "setting": "Dihydrofolate reductase", "value": "> 400", "unit": "µM"}, {"measurement": "MIC", "setting": "Shigella dysenteriae", "value": 125, "unit": "µg/mL"}, {"measurement": "MIC", "setting": "Salmonella", "value": 250, "unit": "µg/mL"}, {"measurement": "MIC", "setting": "Proteus vulgaris", "value": "> 500", "unit": "µg/mL"}]}, {"smiles": "COc1cc(Cc2c(N)nc(N)nc2Oc2ccccc2)cc(OC)c1OC", "values": [{"measurement": "MIC", "setting": "Staphylococcus aureus [4]", "value": "> 500", "unit": "µg/mL"}, {"measurement": "MIC", "setting": "Escherichia coli", "value": "> 500", "unit": "µg/mL"}, {"measurement": "MIC", "setting": "Streptococcus pyogenes", "value": "> 500", "unit": "µg/mL"}, {"measurement": "MIC", "setting": "Shigella dysenteriae", "value": "> 500", "unit": "µg/mL"}, {"measurement": "MIC", "setting": "Salmonella", "value": "> 500", "unit": "µg/mL"}, {"measurement": "MIC", "setting": "Proteus vulgaris", "value": "> 500", "unit": "µg/mL"}]}, {"smiles": "COc1cc(Cc2c(N)nc(N)nc2N)cc(OC)c1OC", "values": [{"measurement": "IC50", "setting": "Dihydrofolate reductase", "value": "> 900", "unit": "µM"}]}]}
